Assay results reported in patent EP4670722A1, “PROPHYLACTIC OR AMELIORATING AGENT FOR CELL AGING” (Kyowa Pharma Chemical Co., Ltd., priority 2023, dated 2024).

System: Human normal epidermal keratinocytes (HaCaT)
Assay: Cell proliferation rate (MTT) of normal epidermal keratinocytes
Type: cell-based
Details: 50 µg/mL to 200 µg/mL in medium, 2 days, activity increased as content increased, Fig. 1
Experimental: Human normal epidermal keratinocytes (HaCaT) were cultured using DMEM containing 10% FBS. The cultured cells were collected by trypsin treatment. The collected cells were seeded in a 96-well microplate at a concentration of 5.0 x 10^3 cells/well and cultured overnight. Thereafter, the cells were cultured for 2 days at 37°C in a medium for epidermal keratinocyte proliferation (FBS-free) to which a test sample (sucrose or 2'-fucosyllactose) was added to a concentration of 50 µg/mL, 100 µg/mL, or 200 µg/mL. The medium was replaced with FBS-free DMEM medium, then 10 µL/well of 5 mg/mL 3-[4,5-dimethylthiazol-2-yl]-2,5-diphenyltetrazolium bromide (MTT) was added, and the cells were cultured at 37°C for 3 hours. After completion of culture, formazan produced in the cells was extracted with 100 µL of dimethyl sulfoxide (DMSO). After extraction, the absorbance of formazan (As, 492 nm) was measured with a microplate reader. The reference wavelength was set to 620 nm.
Human normal epidermal keratinocytes were cultured and the absorbance of formazan was measured in the same manner as in Example 1-1, except that no test sample was added. The obtained absorbance was designated as Ab, and the cell proliferation rate represented by the following formula (1) was determined. Cell proliferation rate(%) = 100 x As/AB [formula]

## C[C@@H]1O[C@@H](O[C@H]2[C@H](O[C@H]3[C@H](O)[C@@H](O)C(O)O[C@@H]3CO)O[C@H](CO)[C@H](O)[C@@H]2O)[C@@H](O)[C@H](O)[C@@H]1O (stereo partly shown) [2'-FL, 2'-fucosyllactose]
  proliferation activity of normal epidermal cells (cell proliferation rate): improved the proliferation activity of normal epidermal cells
